Experiments:
[1] = test system: male F344 rat lymphocytes in lymphoid tissues; assay: Homing of transfused male lymphocytes in female rats (SRY PCR); type: in vivo; conditions: 0.1 or 1 mg/kg oral 2.5 h before transfusion; 30 min after transfusion
Protocol: The decrease in circulating lymphocytes by FTY720 is due to the acceleration of lymphocyte homing to mesenteric and peripheral lymph nodes and Peyer's patches (FIGS. 13A-13D). For this experiment, after 2.5 h of administering FTY720 at 0.1 mg/kg or 1 mg/kg orally to female F344 rats, lymphocytes from male F344 rat were transfused intravenously into the rats. Thirty minutes after the transfusion, the peripheral blood, spleen, mesenteric lymph nodes, axillary lymph nodes, Peyer's patches, liver, and lung were removed. PCR amplification of SRY-1 gene, which is Y-chromosome specific, detected male lymphocytes in the tissue samples. The PCR primer sequences for SRY amplification were taken from a previous report (47). […]
An aliquot (10 μl) of the PCR products was electrophoresed on 2.5% agarose gel and the amplified DNA-fragments stained with SYBR Green I (Molecular Probes). The fluorescence intensity of the specific bands was visualized and measured by a fluorescence image analyzer (Fluor Imager 575, Molecular Dynamics). The number of male cells in 10^6 female cells, calculated with a standard curve made from a control amplification of SRY from a standard DNA extracted from 10^6 […], is indicated for each tissue noted in FIGS. 13A-13D.

[2] = test system: CD3-positive T cells and CD45RA or A/B-positive B cells; assay: Lymphocyte contents of blood and lymphoid tissues by two color flow cytometry; type: in vivo, rat
Protocol: The lymphocyte contents of peripheral blood and spleen in FTY720-treated intact or allografted rats were analyzed by two color flow cytometry using anti-rat CD3 and anti-rat CD45RA or A/B monoclonal antibodies (21). Lymphocytes were stained with FITC-conjugated anti-CD3 (clone: 1F4, Caltag Laboratories, South San Fransisco, Calif.) (45) and phycoerythrin-conjugated anti-CD45RA or A/B (clone:OX-33, Pharmingen, La Jolla, Calif.) (46) monoclonal antibodies. The T cell and B cell contents were determined by two-color flow cytometry analysis using a flow cytometer (EPICS-XL; Coulter Co.).
(§1) In dogs and monkeys, as well as rats, oral administration with FTY720 also decreases the number of circulating lymphocytes in peripheral blood. The reduction of the number of T cells was especially remarkable. Withdrawal of FTY720 treatment recovered the number of lymphocytes in peripheral blood to the normal level within 2 weeks.

rat HEV cell lines = assay: Adhesion of rat lymphocytes to HEV cells in vitro; type: cell-based
Protocol: After the labeling with calcein-AM, the lymphocytes were washed three times with ice-cold RPMI 1640 medium. […] After incubation, the plates were turned upside down and kept for 30 min to remove HEV-nonadherent cells. Calcein pre-labeled lymphocytes adhered to HEV monolayer were lysed by adding distilled water containing 1% nonidet P-40 and the developed fluorescence was measured at 485/530 nm with fluorescence microplate reader (CytoFluor 2350).

lymphocytes = assay: Numbers of lymphocytes in blood, spleen, mesenteric lymph nodes and Peyer's patches in vivo; design: species or system rat; conditions: 24 hours
Protocol: FTY720 at 0.1 and 1 mg/kg were administered orally to 6 week-old male F344 rats. At 3, 12, 24 hours after administration, peripheral blood, spleen, mesenteric lymph nodes, and Peyer's patches were removed and the lymphocyte numbers of these tissues were measured by using a flow cytometer, as known in the art (EPICS XL).

[3] = test system: IL-2 mRNA in alloantigen-stimulated splenic T cells; assay: IL-2 mRNA expression in allogeneic mixed lymphocyte culture (PCR); type: cell-based, rat; conditions: 48 hours
Protocol: The housekeeping gene HPRT was used as an internal control in order to compare levels of IL-2 mRNA levels relative to the HPRT mRNA levels, as detailed below.
Allogeneic mixed lymphocyte culture was carried out by using nylon-nonadherent spleen cells of F344 rat (RT1^1v1) as responder cells and the spleen cells of WKAH rat (RT1^k) pretreated with 40 μg/ml of mitomycin C for 30 min as stimulator cells. […] After culturing for 48 hours, the cells were recovered by centrifugation. The expression of IL-2 mRNA in the cells was determined by a polymerase chain reaction (PCR) method.
Total RNA was reverse transcribed in […] of buffer solution containing 10 mmol/L Tris-HCl (pH 8.3),50 mM KCl, 5 mM MgCl2, 1 mM each dNTP (dATP, dGTP, dTTP and dCTP), 60 U RNase inhibitor (Takara Ltd. Tokyo, Japan), 15 U avian myelobalastosis virus reverse transcriptase (Takara Ltd.) and 150 pmol random 9-mers at 30° C. for 10 min and 42° C. for 30 min. Primer sequences for IL-2 and hypoxanthine-guanine phosphoribosyltransferase (HPRT) were taken from the previous report (44).
The length in base pairs of the PCR products of IL-2 and HPRT are 351 and 608 bp respectively. […] Fluorescence intensity of the specific bands was visualized by fluorescence image analyzer (FLUOR IMAGER 575®, Molecular Dynamics).

circulating lymphocytes = assay: Circulating lymphocytes in peripheral blood of dogs; type: in vivo, dog; conditions: oral
Description: as §1

T cell region of spleen = T cell region of spleen in vivo

CCCCCCCCc1ccc(CCC(N)(CO)CO)cc1.Cl [FTY720, 2-amino-2[2-(4-octylphenyl)ethyl]propane-1,3-diol hydrochloride]
pre-labeled lymphocytes in peripheral lymph nodes, Peyer's patch, mesenteric lymph nodes [1]: accelerated lymphocyte homing
pre-labeled lymphocytes in spleen [1]: reduction
number of bone marrow cells, thymocytes, polymorphonuclear cells ([2]; data not shown): did not effect
number of T cells and B cells in spleen, thoracic duct, peripheral blood ([2]; oral 1 mg/kg): decrease
numbers of T cells and B cells in mesenteric and peripheral lymph nodes ([2]; oral 1 mg/kg): significantly increased
time to recovery of peripheral blood lymphocytes to normal level after withdrawal ([2]; withdrawal of FTY720 treatment): ≤ 2 weeks
numbers of T cells and B cells in peripheral blood ([2]; within 6 hours after oral 0.1 to 10 mg/kg): dramatically decreased
Fluorescence intensity at 485/530, mean ± SE (n = 6) (rat HEV cell lines; Experiment 1, HEV cells pretreated 3 hours with 1 nmol/L): 1215.7 ± 191.2
Fluorescence intensity at 485/530, mean ± SE (n = 6) (rat HEV cell lines; Experiment 1, HEV cells pretreated 3 hours with 10 nmol/L): 2926.0 ± 196.4
Fluorescence intensity at 485/530, mean ± SE (n = 6) (rat HEV cell lines; Experiment 1, HEV cells pretreated 3 hours with 100 nmol/L): 2510.2 ± 118.8
Fluorescence intensity at 485/530, mean ± SE (n = 6) (rat HEV cell lines; Experiment 2, lymphocytes pretreated 3 hours with 100 nmol/L): 1945.7 ± 5.2
Fluorescence intensity at 485/530, mean ± SE (n = 6) (rat HEV cell lines; FTY720 1 nmol/L present): 2059.2 ± 112.6
Fluorescence intensity at 485/530, mean ± SE (n = 6) (rat HEV cell lines; FTY720 10 nmol/L present): 2107.2 ± 106.5
Fluorescence intensity at 485/530, mean ± SE (n = 6) (rat HEV cell lines; FTY720 100 nmol/L present): 2252.0 ± 70.8
Fluorescence intensity at 485/530, mean ± SE (n = 6) (rat HEV cell lines; FTY720 1000 nmol/L present): 2383.2 ± 115.2
concentration that enhanced adhesion of calcein-prelabeled lymphocytes to HEV (rat HEV cell lines; in vitro, 120 min): ≥ 1 nmol/L
Number of lymphocytes, Peyer's patches (lymphocytes; 0.1 mg/kg p.o.): 551.5 ± 103.5 × 10^4 cells/tissue
Number of lymphocytes, mesenteric lymph nodes (lymphocytes; 0.1 mg/kg p.o.): 421.8 ± 27.4 × 10^5 cells/tissue
Number of lymphocytes, peripheral blood (lymphocytes; 0.1 mg/kg p.o.): 1071.9 ± 59.3 cells/μL
Number of lymphocytes, spleen (lymphocytes; 0.1 mg/kg p.o.): 652.3 ± 31.2 × 10^5 cells/tissue
Number of lymphocytes, Peyer's patches (lymphocytes; 1 mg/kg p.o.): 628.8 ± 61.1 × 10^4 cells/tissue
Number of lymphocytes, mesenteric lymph nodes (lymphocytes; 1 mg/kg p.o.): 434.3 ± 33.2 × 10^5 cells/tissue
Number of lymphocytes, peripheral blood (lymphocytes; 1 mg/kg p.o.): 667.2 ± 199.8 cells/μL
Number of lymphocytes, spleen (lymphocytes; 1 mg/kg p.o.): 538.0 ± 74.1 × 10^5 cells/tissue
concentration that inhibited IL-2 mRNA expression [3]: > 1000 nM
number of circulating lymphocytes in peripheral blood (circulating lymphocytes): decreases
effect on T cell region of spleen (T cell region of spleen): atrophy

Source: patent publication US6667025B2 (Mitsubishi Pharma Corporation, priority 1997, dated 2003)
